Test systems include CAKI-1 renal; HL-60(TB) leukemia; HT29 colon; NCI-H23 lung; NCI-H522 lung; OVCAR-3 ovarian; SN12C renal; TK-10 renal; UACC-62 melanoma; SNB-75 CNS.
Common to all, as to test: DTP human tumour cell line panel, 48 h

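The compound was tested at five concentrations on cells cultured in 96-well plates, with a 48-hour exposure period. Abbreviation: GI50, concentration required for 50% inhibition of growth. TGI: total growth inhibition.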

As for `CC(=O)/C(=C\C1=CCCO1)C(=O)Nc1ccccc1C`, the TGI with CAKI-1 renal, in the experiment with HL-60(TB) leukemia, with HT29 colon, with NCI-H23 lung, in the experiment with NCI-H522 lung and in the experiment on OVCAR-3 ovarian was greater than 100 µM in each case. Besides, the total growth inhibition concentration (TGI) in the experiment on SN12C renal, with TK-10 renal and with UACC-62 melanoma was greater than 100 µM each time.

For `CCC[CH2][Sn]([CH2]CCC)([O]C(=O)C(N)CSC)[O]C(=O)C(N)CSC` (stereo not drawn), the GI50 was 5 µM in the experiment on CAKI-1 renal; 17.2 µM in the experiment with HT29 colon; 2.75 µM in the experiment with NCI-H23 lung; 1.34 µM with NCI-H522 lung; 12.5 µM in the experiment on OVCAR-3 ovarian; 8.82 µM in the experiment on SN12C renal. For the same compound, the GI50 in the experiment on SNB-75 CNS was 10 µM; with TK-10 renal it was 9.03 µM; in the experiment with UACC-62 melanoma, 10.4 µM. Further, the total growth inhibition concentration (TGI) in the experiment with CAKI-1 renal worked out at 17.4 µM; with HT29 colon, 44.7 µM; in the experiment with NCI-H23 lung, 13.1 µM; in the experiment with NCI-H522 lung, 3.39 µM; with OVCAR-3 ovarian, 25.4 µM; in the experiment on SN12C renal, 23.4 µM. Besides, the total growth inhibition concentration (TGI) with SNB-75 CNS worked out at 31.6 µM; in the experiment on TK-10 renal it was 21.5 µM; with UACC-62 melanoma, 23 µM.

Take `CC[Si](CC)(CC)OC[C@]1([C@@H]2COC(C)(C)O2)CC=CC(=O)O1`: the GI50 in the experiment on CAKI-1 renal was 33.6 µM; in the experiment with HT29 colon, 46.8 µM; in the experiment on NCI-H23 lung, 23.3 µM; in the experiment on NCI-H522 lung, 35.4 µM; in the experiment on OVCAR-3 ovarian it was 32.6 µM; with SN12C renal it was 31.1 µM. Besides, the GI50 was 24.2 µM in the experiment on TK-10 renal and 25.6 µM in the experiment on UACC-62 melanoma. The concentration for total growth inhibition (TGI) in the experiment with CAKI-1 renal, with HT29 colon, with NCI-H23 lung, with NCI-H522 lung, in the experiment with OVCAR-3 ovarian and with SN12C renal was greater than 100 µM in each case. The TGI is 79 µM in the experiment on TK-10 renal and greater than 100 µM in the experiment with UACC-62 melanoma.

In the case of `Cc1ccc(NC(=O)CCC/C(CC(=O)c2ccc(Br)cc2)=N/NC(=O)CC#N)cc1`, the TGI with HL-60(TB) leukemia, in the experiment on HT29 colon, in the experiment with NCI-H23 lung, in the experiment on OVCAR-3 ovarian, in the experiment on SN12C renal and in the experiment on SNB-75 CNS was greater than 100 µM each time. The concentration for total growth inhibition (TGI) in the experiment with TK-10 renal and with UACC-62 melanoma was greater than 100 µM throughout.

As for `COC(=O)C12CC(c3ccccc31)C1C(=O)OC(=O)C12` (stereo not drawn), the TGI in the experiment with HL-60(TB) leukemia, in the experiment with HT29 colon, with NCI-H23 lung, in the experiment with NCI-H522 lung, in the experiment on OVCAR-3 ovarian and in the experiment with SN12C renal was greater than 100 µM in each case. Also, the concentration for total growth inhibition (TGI) in the experiment on SNB-75 CNS, with TK-10 renal and in the experiment with UACC-62 melanoma was greater than 100 µM each time.

Regarding `COc1cccc(-c2nc3sccn3c2-c2ccnc(NCCNS(=O)(=O)c3ccccc3)c2)c1`, the GI50 was 1.42 µM in the experiment with CAKI-1 renal; 1.71 µM in the experiment on HL-60(TB) leukemia; 2.37 µM in the experiment on HT29 colon; 2.64 µM in the experiment with NCI-H23 lung; 2.26 µM with NCI-H522 lung; 3.15 µM with OVCAR-3 ovarian. For the same compound, the GI50 in the experiment on SN12C renal is 2.91 µM; with TK-10 renal, 3.58 µM; with UACC-62 melanoma, 1.29 µM. Moreover, the TGI is greater than 100 µM in the experiment with CAKI-1 renal; 5.56 µM in the experiment on HL-60(TB) leukemia; 34.3 µM in the experiment with HT29 colon; 13.3 µM with NCI-H23 lung; 27.6 µM in the experiment on NCI-H522 lung; greater than 100 µM with OVCAR-3 ovarian. Further, the total growth inhibition concentration (TGI) was greater than 100 µM in the experiment with SN12C renal, 57.2 µM in the experiment with TK-10 renal and 3.49 µM with UACC-62 melanoma.

As to `O=C(Nc1ccc(F)cc1)C(=O)C(C1OC(=O)c2ccccc21)[N+](=O)[O-]` (stereo not drawn), the TGI with CAKI-1 renal, in the experiment with HL-60(TB) leukemia, with HT29 colon, in the experiment on NCI-H23 lung, with OVCAR-3 ovarian and in the experiment on SNB-75 CNS was greater than 100 µM each time. The TGI in the experiment with TK-10 renal and in the experiment on UACC-62 melanoma was greater than 100 µM each time.

On to `COc1ccc(C2=C(c3ccc(OC)c(OC)c3)C(=O)OC2)cc1`, for which the total growth inhibition concentration (TGI) is 4.89 µM with CAKI-1 renal; 1.51 µM in the experiment with HL-60(TB) leukemia; greater than 100 µM with HT29 colon; greater than 100 µM with NCI-H23 lung; 0.389 µM in the experiment on OVCAR-3 ovarian; greater than 82.1 µM with SN12C renal. Further, the results for the TGI in the experiment with TK-10 renal and with UACC-62 melanoma were 16.5 µM and 13.2 µM, respectively. For the same compound, the GI50 with HT29 colon is less than 0.01 µM; with NCI-H23 lung, 0.023 µM; in the experiment with NCI-H522 lung, less than 0.0406 µM; in the experiment on OVCAR-3 ovarian, 0.177 µM; in the experiment on SN12C renal it was 0.123 µM; with UACC-62 melanoma it was less than 0.01 µM.

In the case of `O=c1[nH]c2c3ccccc3ccc2c2cc3c(cc12)OCO3`, the TGI in the experiment on CAKI-1 renal, in the experiment on HT29 colon, with NCI-H23 lung, in the experiment with NCI-H522 lung, in the experiment on OVCAR-3 ovarian and with SN12C renal was greater than 100 µM in each case. Also, the total growth inhibition concentration (TGI) with SNB-75 CNS, in the experiment with TK-10 renal and with UACC-62 melanoma was greater than 100 µM in each case.

Take `Cc1ccc(/C=C/C(=O)c2sc(-c3cccnc3)nc2C)cc1`: the TGI in the experiment with CAKI-1 renal, in the experiment on HL-60(TB) leukemia, in the experiment on HT29 colon, in the experiment with NCI-H23 lung, with NCI-H522 lung and with OVCAR-3 ovarian was greater than 100 µM each time. Besides, the TGI in the experiment with SN12C renal, with TK-10 renal and with UACC-62 melanoma was greater than 100 µM in each case.

With `CN(C)CC/C(=N\Nc1ccccc1)c1ccccc1`, the TGI with CAKI-1 renal is 11.2 µM; in the experiment on HT29 colon, 10 µM; in the experiment with NCI-H23 lung, greater than 100 µM; in the experiment on OVCAR-3 ovarian, 27.7 µM; with TK-10 renal it was 41.2 µM; in the experiment on UACC-62 melanoma, greater than 100 µM.

As for `O=c1ccnc2c1ccc1[nH]cccc12`, the concentration for total growth inhibition (TGI) in the experiment with HL-60(TB) leukemia, in the experiment on HT29 colon, in the experiment with NCI-H23 lung, in the experiment on NCI-H522 lung, in the experiment on OVCAR-3 ovarian and in the experiment with SN12C renal was greater than 100 µM in each case. Further, the TGI in the experiment on SNB-75 CNS, in the experiment on TK-10 renal and with UACC-62 melanoma was greater than 100 µM each time.

The TGI is the concentration at which net growth stops. A high value points to lower sensitivity of the cells. By GI50 is commonly meant the concentration at which growth is held to half of that of the control.

(Values after PubChem BioAssay (NCI).)
